# Source: paper PMC6255700, “A novel glycosyltransferase catalyses the transfer of glucose to glucosylated anthocyanins in purple sweet potato” (Journal of Experimental Botany, 2018)
# Assays:
# [1] = target: T1, Ib3GGT (IbA3G2GluT) (Ipomoea batatas, UniProt A1YM58); assay: HPLC / LC-MS glycosyltransferase assay with crude recombinant yeast extract; format: cell-based; conditions: acceptor; donor 1 mM UDP-glucose; 100 mM phosphate pH 7.0, 37 °C, 2 h
# T1 construct: gene GT
# [2] = target: T2, At3GGT (UGT79B1, AtA3G2XylT) (Arabidopsis thaliana, UniProt Q9LVW3); assay: as above; format: cell-based; conditions: acceptor; donor UDP-xylose; 100 mM phosphate pH 7.0, 37 °C, 2 h
# T2 construct: gene A3G2XYLT; full length, C-terminal His6, pYES2 in Saccharomyces cerevisiae BY4742, crude yeast extract
# T2 sequence (Q9LVW3 1-468): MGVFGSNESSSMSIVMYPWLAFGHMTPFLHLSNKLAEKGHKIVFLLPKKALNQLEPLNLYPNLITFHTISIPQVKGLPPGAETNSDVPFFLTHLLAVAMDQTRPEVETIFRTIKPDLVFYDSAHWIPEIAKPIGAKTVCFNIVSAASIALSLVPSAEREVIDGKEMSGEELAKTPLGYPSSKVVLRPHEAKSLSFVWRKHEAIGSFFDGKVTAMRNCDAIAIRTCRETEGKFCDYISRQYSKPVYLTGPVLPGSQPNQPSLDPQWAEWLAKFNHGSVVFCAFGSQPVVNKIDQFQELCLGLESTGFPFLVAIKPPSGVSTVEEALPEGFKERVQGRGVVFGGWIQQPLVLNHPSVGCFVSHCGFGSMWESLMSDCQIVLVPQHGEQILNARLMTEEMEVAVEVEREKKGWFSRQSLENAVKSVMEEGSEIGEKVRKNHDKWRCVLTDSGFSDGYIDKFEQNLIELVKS
# T1 sequence (A1YM58 entry or part of it): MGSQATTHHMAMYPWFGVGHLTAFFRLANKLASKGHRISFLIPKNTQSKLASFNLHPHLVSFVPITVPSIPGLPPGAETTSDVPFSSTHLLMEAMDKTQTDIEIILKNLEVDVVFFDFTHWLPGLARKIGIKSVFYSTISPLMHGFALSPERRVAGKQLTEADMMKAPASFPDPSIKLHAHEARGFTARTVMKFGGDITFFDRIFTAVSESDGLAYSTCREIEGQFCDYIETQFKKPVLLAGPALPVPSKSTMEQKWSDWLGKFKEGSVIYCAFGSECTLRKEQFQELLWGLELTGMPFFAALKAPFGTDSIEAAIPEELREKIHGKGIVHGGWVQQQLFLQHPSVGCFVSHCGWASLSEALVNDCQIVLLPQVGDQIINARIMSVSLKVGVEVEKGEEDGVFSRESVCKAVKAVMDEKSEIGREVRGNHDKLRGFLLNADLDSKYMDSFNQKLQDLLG
structure (smiles),measurement,setting,value
OC[C@H]1O[C@@H](Oc2cc3c(O)cc(O)cc3[o+]c2-c2ccc(O)c(O)c2)[C@H](O)[C@@H](O)[C@@H]1O [cyanidin 3-O-glucoside],HPLC / LC-MS glycosyltransferase assay with crude recombinant yeast extract,[1],The recombinant Ib3GGT protein only catalysed the conversion of cyanidin 3-O-glucoside into cyanidin 3-O-sophoroside
same,HPLC / LC-MS glycosyltransferase assay with crude recombinant yeast extract,[2],using only UDP-xylose as the sugar donor to catalyse cyanidin 3-O-glucoside into cyanidin 3-O-glucoside-2″-O-xyloside
